Experimental data reported in ChEMBL document CHEMBL4420076, “Amylin and calcitonin receptor agonist” (2017).
Numbered stars: 1 amine (or outer) side, 2 acyl side, 3 side chain; on linkers, the order of the positions; unused ones are H or OH. Side chains are listed from the residue outwards. Peptide text beside a SMILES is read from it. * marks the point of attachment. C20 diacid = O=C(O)CCCCCCCCCCCCCCCCCCC(=O)*; C18 diacid = O=C(O)CCCCCCCCCCCCCCCCC(=O)*; γGlu = O=C(O)[C@H](CCC(=O)[*:2])N[*:1]

Tests used:
[1] = Stability in pH 7.5 buffer assessed as compound recovery at 1 uM by Thioflavin T based fluorescence assay; assay type: physicochemical; conditions: read-out: Drug recovery
Calcitonin receptor [2] = molecular target: T1, Calcitonin receptor (Homo sapiens, UniProt P30988); experiment: Displacement of [125I]-labeled human calcitonin from human calcitonin receptor expressed in BHK tkts13 whole cells incubated for 60 mins by scintillation proximity assay; assay type: cell-based
T1 sequence (P30988 whole entry): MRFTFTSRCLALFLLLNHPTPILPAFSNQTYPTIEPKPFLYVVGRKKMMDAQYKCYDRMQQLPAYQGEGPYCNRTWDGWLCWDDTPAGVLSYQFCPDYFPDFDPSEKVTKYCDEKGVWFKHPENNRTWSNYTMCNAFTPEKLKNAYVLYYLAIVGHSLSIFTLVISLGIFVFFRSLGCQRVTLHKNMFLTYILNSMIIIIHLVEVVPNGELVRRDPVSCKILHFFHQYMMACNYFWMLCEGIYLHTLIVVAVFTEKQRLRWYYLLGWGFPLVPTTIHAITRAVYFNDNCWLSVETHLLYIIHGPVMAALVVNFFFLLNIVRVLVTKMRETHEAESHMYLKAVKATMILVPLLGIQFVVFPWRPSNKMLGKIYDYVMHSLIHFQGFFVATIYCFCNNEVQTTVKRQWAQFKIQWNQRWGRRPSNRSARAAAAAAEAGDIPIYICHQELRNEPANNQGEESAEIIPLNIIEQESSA

[3] = Solubility in 100 mM glycylglycine buffer at pH 3.0 incubated for 18 hrs by UPLC analysis; assay type: physicochemical
Calcitonin receptor [4] = molecular target: T1, Calcitonin receptor; experiment: Agonist activity at human calcitonin receptor expressed in BHK570 cells assessed as increase in intracellular cAMP concentration incubated for 3 hrs in presence of 10% FBS by CRE luciferase reporter gene assay; assay type: functional, cell-based
[5] = Stability in pH 7.5 buffer assessed as lag time for fibril formation at 1 uM by Thioflavin T based fluorescence assay; assay type: physicochemical; conditions: pH 7.5, 1 µM
[6] = molecular target: T2, Amylin receptor AMY3; CALCR/RAMP3 (Homo sapiens, UniProt O60896+P30988); experiment: Displacement of [125I]-labeled rat amylin from human amylin receptor expressed in BHK tkts13 whole cells co-expressing RAMP3 incubated for 60 mins by scintillation proximity assay; assay type: cell-based
T2 sequence (P30988 whole entry): T1 sequence (P30988 whole entry)
T2 sequence (O60896 whole entry): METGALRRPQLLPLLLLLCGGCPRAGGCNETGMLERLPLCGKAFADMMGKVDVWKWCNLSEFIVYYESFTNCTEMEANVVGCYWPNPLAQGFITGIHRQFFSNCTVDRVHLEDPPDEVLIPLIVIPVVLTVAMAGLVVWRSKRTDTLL

[7] = Solubility in 100 mM glycylglycine buffer at pH 4.0 incubated for 18 hrs by UPLC analysis; assay type: physicochemical
[8] = Solubility in 100 mM glycylglycine buffer at pH 5.0 incubated for 18 hrs by UPLC analysis; assay type: physicochemical
[9] = molecular target: T2, Amylin receptor AMY3; CALCR/RAMP3; experiment: Agonist activity at human amylin receptor expressed in BHK570 cells co-expressing RAMP3 assessed as increase in intracellular cAMP concentration incubated for 3 hrs in absence of albumin by CRE luciferase reporter gene assay; assay type: functional, cell-based
Rattus norvegicus [10] = experiment: Reduction in food intake in Sprague-Dawley rat at 3 nmol/kg measured 0 to 24 hrs post dose relative to control; assay type: functional; set-up: scale not given: the % may be the effect or the level left
Rattus norvegicus [11] = experiment: Reduction in food intake in Sprague-Dawley rat at 3 nmol/kg measured 24 to 48 hrs post dose relative to control; assay type: functional; set-up: scale not given: the % may be the effect or the level left
[12] = Solubility in 100 mM bistrispropane buffer at pH 7.5 incubated for 18 hrs by UPLC analysis; assay type: physicochemical
Calcitonin receptor [13] = molecular target: T1, Calcitonin receptor; experiment: Agonist activity at human calcitonin receptor expressed in BHK570 cells assessed as increase in intracellular cAMP concentration incubated for 3 hrs in absence of albumin by CRE luciferase reporter gene assay; assay type: functional, cell-based
[14] = Solubility in 100 mM bistrispropane buffer at pH 8.0 incubated for 18 hrs by UPLC analysis; assay type: physicochemical
[15] = Solubility in 100 mM bistrispropane buffer at pH 7.0 incubated for 18 hrs by UPLC analysis; assay type: physicochemical
[16] = Solubility in 100 mM bistrispropane buffer at pH 6.5 incubated for 18 hrs by UPLC analysis; assay type: physicochemical
[17] = Solubility in 100 mM bistrispropane buffer at pH 6.0 incubated for 18 hrs by UPLC analysis; assay type: physicochemical
[18] = molecular target: T2, Amylin receptor AMY3; CALCR/RAMP3; experiment: Agonist activity at human amylin receptor expressed in BHK570 cells co-expressing RAMP3 assessed as increase in intracellular cAMP concentration incubated for 3 hrs in presence of 10% FBS by CRE luciferase reporter gene assay; assay type: functional, cell-based
Calcitonin receptor [19] = molecular target: T1, Calcitonin receptor; experiment: Displacement of [125I]-labeled human calcitonin from human calcitonin receptor expressed in BHK tkts13 cell membranes incubated for 1 hr by scintillation proximity assay
[20] = molecular target: T3, Amylin receptor AMY3; CALCR/RAMP3 (Rattus norvegicus, UniProt P32214+Q9JJ73); experiment: Displacement of [125I]-labeled rat amylin from rat amylin receptor expressed in BHK tkts13 cell membranes co-expressing RAMP3 incubated for 120 mins by scintillation proximity assay
T3 sequence (P32214 whole entry): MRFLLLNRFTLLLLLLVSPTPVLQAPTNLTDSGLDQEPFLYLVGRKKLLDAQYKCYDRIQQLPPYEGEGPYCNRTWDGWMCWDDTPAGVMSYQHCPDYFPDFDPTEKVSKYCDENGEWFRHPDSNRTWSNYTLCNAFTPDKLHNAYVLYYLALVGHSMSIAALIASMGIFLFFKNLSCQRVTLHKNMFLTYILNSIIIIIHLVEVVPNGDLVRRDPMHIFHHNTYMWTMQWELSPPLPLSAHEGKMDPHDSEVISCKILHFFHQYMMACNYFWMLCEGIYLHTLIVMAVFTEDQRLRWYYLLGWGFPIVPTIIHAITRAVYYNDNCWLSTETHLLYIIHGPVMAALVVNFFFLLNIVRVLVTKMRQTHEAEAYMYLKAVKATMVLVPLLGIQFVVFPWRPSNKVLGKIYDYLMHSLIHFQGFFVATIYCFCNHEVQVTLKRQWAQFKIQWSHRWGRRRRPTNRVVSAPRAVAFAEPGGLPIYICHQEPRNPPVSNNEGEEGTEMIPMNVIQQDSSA
T3 sequence (Q9JJ73 whole entry): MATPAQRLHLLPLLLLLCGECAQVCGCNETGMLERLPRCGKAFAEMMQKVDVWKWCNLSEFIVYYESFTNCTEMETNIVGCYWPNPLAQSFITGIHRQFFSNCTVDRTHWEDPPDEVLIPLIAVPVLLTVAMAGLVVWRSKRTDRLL

Row | Compound | remaining at 1 µM [1] | IC50 (Calcitonin receptor [2]) | solubility at 18 h [3] | EC50 (Calcitonin receptor [4]) | Time [5] | IC50 [6] | solubility at 18 h [7] | solubility at 18 h [8] | EC50 [9] | Activity (Rattus norvegicus [10]) | Activity (Rattus norvegicus [11]) | solubility at 18 h [12] | EC50 (Calcitonin receptor [13]) | solubility at 18 h [14] | solubility at 18 h [15] | solubility at 18 h [16] | solubility at 18 h [17] | EC50 [18] | IC50 (Calcitonin receptor [19]) | IC50 [20]
1 | CC(C)C[C@H](NC(=O)CNC(=O)[C@H](CO)NC(=O)[C@H](C)N)C(=O)N[C@@H](CO)C(=O)N[C@H](C(=O)N[C@@H](C)C(=O)N[C@@H](C)C(=O)N[C@@H](CC(C)C)C(=O)NCC(=O)N[C@@H](CCCNC(=N)N)C(=O)N[C@@H](CC(C)C)C(=O)N[C@@H](CO)C(=O)N[C@@H](CCC(N)=O)C(=O)N[C@@H](CCC(=O)O)C(=O)N[C@@H](CC(C)C)C(=O)N[C@@H](Cc1cnc[nH]1)C(=O)N[C@@H](CCC(=O)O)C(=O)N[C@@H](CC(C)C)C(=O)N[C@@H](CCC(N)=O)C(=O)N[C@H](C(=O)N[C@@H](Cc1ccc(O)cc1)C(=O)N1CCC[C@H]1C(=O)N[C@@H](CCCNC(=N)N)C(=O)N[C@H](C(=O)N[C@@H](CCC(=O)O)C(=O)N[C@H](C(=O)NCC(=O)N[C@@H](CO)C(=O)N[C@@H](CCCCNC(=O)CC[C@H](NC(=O)CCCCCCCCCCCCCCCCCCC(=O)O)C(=O)O)C(=O)N[C@H](C(=O)N[C@@H](Cc1ccc(O)cc1)C(N)=O)[C@@H](C)O)[C@@H](C)O)[C@@H](C)O)[C@@H](C)O)[C@@H](C)O (H-ASGLSTAALGRLSQELHELQTYPRTETGSK([γGlu-C20 diacid])TY-NH2) | 0% | 1270 pM | ≥ 200 µM | 113 pM | 0.3 h | 5440 pM | ≥ 200 µM | ≥ 200 µM | 68 pM | 4% | -5% | ≥ 200 µM | 36 pM | ≥ 200 µM | – | – | – | – | – | –
2 | CC(C)C[C@H](NC(=O)[C@H](CCC(=O)O)NC(=O)[C@H](Cc1cnc[nH]1)NC(=O)[C@H](CC(C)C)NC(=O)[C@H](CCC(=O)O)NC(=O)[C@H](C)NC(=O)[C@H](CO)NC(=O)[C@H](CC(C)C)NC(=O)[C@H](CCCNC(=N)N)NC(=O)CNC(=O)[C@H](CC(C)C)NC(=O)[C@@H](NC(=O)[C@H](C)NC(=O)[C@@H](NC(=O)[C@H](CO)NC(=O)[C@H](CC(C)C)NC(=O)[C@H](CCC(=O)O)NC(=O)[C@@H]1CCCN1C(=O)[C@H](C)NC(=O)[C@H](CCC(=O)O)NC(=O)CCCCCCCCCCCCCCCCC(=O)O)[C@@H](C)O)C(C)C)C(=O)N[C@@H](C)C(=O)N[C@H](C(=O)N[C@@H](CC(C)C)C(=O)N1CCC[C@H]1C(=O)N[C@@H](CCCNC(=N)N)C(=O)N[C@H](C(=O)N[C@@H](CCC(=O)O)C(=O)N[C@H](C(=O)NCC(=O)N1CCC[C@H]1C(=O)N[C@@H](CCC(=O)O)C(=O)N[C@@H](CO)C(=O)N1CCC[C@H]1C(N)=O)[C@@H](C)O)[C@@H](C)O)[C@@H](C)O ({C18 diacid}-EAPELSTAVLGRLSAELHELATLPRTETGPESP-NH2) | – | 309 pM | ≥ 200 µM | – | – | 352 pM | ≥ 200 µM | ≥ 200 µM | 10 pM | 52% | 0% | ≥ 200 µM | 7 pM | ≥ 200 µM | ≥ 200 µM | ≥ 200 µM | ≥ 200 µM | – | – | –
3 | CC(C)C[C@H](NC(=O)[C@H](C)NC(=O)[C@H](C)NC(=O)[C@@H](NC(=O)[C@H](CO)NC(=O)[C@H](CC(C)C)NC(=O)[C@H](CCC(=O)O)NC(=O)[C@H](CO)NC(=O)[C@H](C)NC(=O)CC[C@H](NC(=O)CCCCCCCCCCCCCCCCCCC(=O)O)C(=O)O)[C@@H](C)O)C(=O)NCC(=O)N[C@@H](CCCNC(=N)N)C(=O)N[C@@H](CC(C)C)C(=O)N[C@@H](CO)C(=O)N[C@@H](C)C(=O)N[C@@H](CCC(=O)O)C(=O)N[C@@H](CC(C)C)C(=O)N[C@@H](Cc1cnc[nH]1)C(=O)N[C@@H](CCC(=O)O)C(=O)N[C@@H](CC(C)C)C(=O)N[C@@H](C)C(=O)N[C@H](C(=O)N[C@@H](CC(C)C)C(=O)N1CCC[C@H]1C(=O)N[C@@H](Cc1cnc[nH]1)C(=O)N[C@H](C(=O)N[C@@H](CCC(=O)O)C(=O)N[C@H](C(=O)NCC(=O)N[C@@H](CO)C(=O)NCC(=O)N[C@@H](CO)C(=O)N1CCC[C@H]1C(N)=O)[C@@H](C)O)[C@@H](C)O)[C@@H](C)O ({C20 diacid-γGlu}-ASELSTAALGRLSAELHELATLPHTETGSGSP-NH2) | – | 442 pM | ≥ 200 µM | 22 pM | – | 608 pM | ≥ 200 µM | ≥ 200 µM | 27 pM | 55% | 62% | ≥ 200 µM | 18 pM | ≥ 200 µM | ≥ 200 µM | ≥ 200 µM | ≥ 200 µM | 185 pM | – | –
4 | CC(C)C[C@H](NC(=O)[C@H](C)NC(=O)[C@H](C)NC(=O)[C@@H](NC(=O)[C@H](CO)NC(=O)[C@H](CC(C)C)NC(=O)[C@H](CCC(=O)O)NC(=O)[C@H](CO)NC(=O)[C@H](C)NC(=O)CC[C@H](NC(=O)CCCCCCCCCCCCCCCCCCC(=O)O)C(=O)O)[C@@H](C)O)C(=O)NCC(=O)N[C@@H](CCCNC(=N)N)C(=O)N[C@@H](CC(C)C)C(=O)N[C@@H](CO)C(=O)N[C@@H](C)C(=O)N[C@@H](CCC(=O)O)C(=O)N[C@@H](CC(C)C)C(=O)N[C@@H](Cc1cnc[nH]1)C(=O)N[C@@H](CCC(=O)O)C(=O)N[C@@H](CC(C)C)C(=O)N[C@@H](C)C(=O)N[C@H](C(=O)N[C@@H](Cc1ccc(O)cc1)C(=O)N1CCC[C@H]1C(=O)N[C@@H](CCCNC(=N)N)C(=O)N[C@H](C(=O)N[C@@H](CCC(=O)O)C(=O)N[C@H](C(=O)NCC(=O)N[C@@H](CO)C(=O)NCC(=O)N[C@@H](CO)C(=O)N1CCC[C@H]1C(N)=O)[C@@H](C)O)[C@@H](C)O)[C@@H](C)O ({C20 diacid-γGlu}-ASELSTAALGRLSAELHELATYPRTETGSGSP-NH2) | 100% | 2940 pM | ≥ 200 µM | – | > 45 h | 2610 pM | ≥ 200 µM | ≥ 200 µM | – | 45% | 67% | ≥ 200 µM | 23 pM | ≥ 200 µM | ≥ 200 µM | ≥ 200 µM | ≥ 200 µM | 67 pM | 70 pM | 3990 pM
